# Source: paper PMC11737796 (PLOS ONE, 2025)
# Values joined by “and” are separate entries in the source; they are usually repeats but may differ in a detail not shown here. Equal values may be shown once. Read-outs that look alike come from different tables or passages of the source.
# Assays:
# [1] = target: T1, recombinant murine RORγt LBD (Mus musculus, UniProt P51450); assay: Murine RORγt radioligand competition binding assay; details: for Mouse ligand binding Response (%): raw points of replicate experiments
# T1 construct: 10nM purified HN-AVI-GST-TCS-mRORγ(aa256-516) was mixed with
# T1 sequence (P51450 256-516): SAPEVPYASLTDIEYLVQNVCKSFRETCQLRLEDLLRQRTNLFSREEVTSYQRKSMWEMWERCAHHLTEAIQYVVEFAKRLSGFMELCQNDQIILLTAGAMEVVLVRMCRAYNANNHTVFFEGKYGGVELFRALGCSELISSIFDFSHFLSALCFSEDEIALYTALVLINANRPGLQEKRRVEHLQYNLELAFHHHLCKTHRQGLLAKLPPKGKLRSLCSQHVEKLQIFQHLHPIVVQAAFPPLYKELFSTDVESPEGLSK
# Description: The assay was run in white/clear polystyrene flat-bottom 384-well plates (Greiner, cat. No. 781095). Assays were carried out in 40 μl reaction volumes. 0.125 μl of a fixed concentration range of test ligands dissolved in DMSO were added to assay plates using an acoustic liquid dispenser.
# (§1) The raw data from the radio-ligand and co-factor recruitment assays were transformed to % effect using the equation:
# (§2) Compound % effect = 100*[(X-min)/(max-min)]
# (§3) where X represents the effect in the presence of test compound and max and min are the effects in presence of the maximum and minimum controls respectively.
# (§4) The data was plotted to generate concentration response profiles and the concentration-response curves were fitted to the data using the non-linear regression analysis; 4 parameter logistic smart fit method in the Analyser application of the Genedata® Screener software (Genedata, Inc., Basel, Switzerland). […] Ki was calculated from the IC50 value using the equation Ki = IC50/1+[L]/Kd)
# human RORα LBD = target: T2, human RORα LBD (Homo sapiens, UniProt P35398); assay: RORα co-factor recruitment assay; format: biochemical; details: raw points; for RORa agonism Response (%): agonism mode; for RORa inverse agonism Response (%): inverse agonism mode
# T2 construct: 180 nM Protein (His6-tcs-hRORαLBD)
# T2 sequence (P35398 272-510 limits assumed): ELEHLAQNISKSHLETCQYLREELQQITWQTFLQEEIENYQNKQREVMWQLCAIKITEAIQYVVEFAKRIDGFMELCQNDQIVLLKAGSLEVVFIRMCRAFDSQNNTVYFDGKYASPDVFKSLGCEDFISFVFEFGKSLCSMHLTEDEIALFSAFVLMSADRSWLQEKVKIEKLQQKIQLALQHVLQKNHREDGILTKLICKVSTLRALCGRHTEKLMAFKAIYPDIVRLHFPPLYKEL
# Description: The assay was run in black 384 well plates (Greiner: 784900). A 0.2 μl volume of a fixed concentration range of test ligands dissolved in DMSO were added to assay plates using an acoustic liquid dispenser. Two pre-mixes were prepared in falcon tubes. Pre-mix 1 comprised 180 nM Protein (His6-tcs-hRORαLBD) and 8 nM Lance Eu-W1024-anti 6xHis in assay buffer, 50 mM Hepes pH7.4, 100 mM NaCl, 0.1% (w/v) BSA, 1 mM TCEP which was incubated for 30 minutes at room temperature before dispensing 10 μl to assay plates. Then, pre-mix 2 comprising 200 nM biotinylated PGC1alpha peptide and 50 nM streptavidin APC in assay buffer, was prepared and incubated for 30 minutes at room temperature before adding 10 μl to assay plates containing test compound and premix 1. Plates were incubated at room temperature for 1 hour in the dark, prior to reading in a Pherastar multi-mode plate reader (BMG LABTECH) using HTRF filter set (ex 320 nm, em 612 and 665 nm). The FRET signal at 665 nm was divided by the signal at 612 nm and multiplied by 10,000 to generate a signal ratio value for each well.
# as §1, §2, §3, §4
# [2] = tested on: IL-17A production in primary human Th17 cells; assay: Primary human Th17 cell assay (IL-17A release); format: cell-based
# Description: Peripheral blood mononuclear cells were isolated from heparin treated human whole blood from healthy donors by density gradient centrifugation. […] On day 4, supernatants were collected and IL-17A was measured using a Human IL-17A HTRF Assay kit (Cisbio/PerkinElmer, MA, USA) according to the manufacturer’s protocol.
# Genedata Screener® software (Genedata, Inc., Basel, Switzerland) was used for data normalization, curve fitting and calculation of IC50 for IL-17A inhibition as well as for cell viability. Raw data from the Human IL-17A HTRF Assay and CellTiter-Glo® Luminescent Cell Viability assay was transformed to % effect according to the formula:
# Compound % effect = 100*[(X-min)/(max-min)],
# where X represents the effect in the presence of test compound. […] For the cell viability calculations, 2-(2,2-dicyclohexylethyl)piperidine at 10 μM was used as maximal toxicity control while DMSO was used as minimal toxicity control. A four-parameter logistic smart fit method in the Analyser application of the Genedata® Screener software was used for curve fitting of the % effect data and IC50 calculation.
# mouse thymocytes = assay: Mouse thymocyte apoptosis assay ex vivo; format: cell-based; details: 26 hours, AnnexinV and 7AAD staining
# Description: The thymus from a female C57BL/6NCrl (Charles River) mouse aged around 7 weeks was dissected out after giving the mouse a lethal i.p. injection of penthobarbital. Single cell suspension of thymocytes was prepared by disrupting the thymus through a 70 μm cell strainer with the top of a sterile 5 ml syringe plunger in DPBS (without Ca/Mg). Cells were filtered through a 40 μm cell strainer and washed in serum-free media before being resuspended in complete media (RPMI1640 with L-glutamine supplemented with 10% heat inactivated foetal bovine serum (FBS) (Gibco/Invitrogen) and 50 μM 2-mercaptoethanol (Gibco/Invitrogen).
# Cells were seeded at 500 000 cells/well in 96-well plates (U-bottom, cat #3799, Corning, MA, USA) in the presence of compounds or DMSO and cultured for 26 hours (37°C, 5% CO2). The thymocytes were then washed twice in cold DPBS (without Ca/Mg) and stained with APC AnnexinV (#550475, BD Pharmingen, BD Biosciences, CA, USA) and 7AAD (#559925, BD Pharmingen) in AnnexinV Binding buffer (#556454, BD Pharmingen) for 15 minutes at RT (dark) in order to separate live cells from dead, early apoptotic and late apoptotic cells when analysed on the BD Accuri C6 (BD Biosciences, CA, USA).
# The compound effect on the percentage of surviving cells relative to the DMSO control were calculated using the following formula; […]
# [3] = Mouse plasma protein binding; format: in vitro ADME
# Source text: Table 1 Overview of compound potencies in multiple assays. | column: 1; 2; 3; 4; 5; 6
# IMQ model = details: cited from earlier work
# thymocyte numbers = details: bi-daily administration of 10 mg/kg, after two days; cited from earlier work
# thymic lymphomas [4] = details: rats; cited from earlier work
# thymic lymphomas [5] = details: mice; cited from earlier work
# [6] = target: T3, recombinant human RORγt LBD (Homo sapiens, UniProt P51449); assay: Human RORγt radioligand competition binding assay
# T3 sequence (P51449 258-518): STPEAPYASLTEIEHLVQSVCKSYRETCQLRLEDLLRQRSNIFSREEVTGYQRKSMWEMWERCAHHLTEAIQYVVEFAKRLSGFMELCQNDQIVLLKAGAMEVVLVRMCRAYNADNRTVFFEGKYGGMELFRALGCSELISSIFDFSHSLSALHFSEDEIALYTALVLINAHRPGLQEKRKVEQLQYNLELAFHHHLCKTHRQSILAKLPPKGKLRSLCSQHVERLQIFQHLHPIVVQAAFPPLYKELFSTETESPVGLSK
# Description: The assay was run in white polystyrene flat-bottom 384-well plates (Greiner, cat. No. 781075). Assays were carried out in 40 μl reaction volumes. A concentration range of test ligands in 0.4 μl of DMSO were added to assay plates using an acoustic liquid dispenser. […] Test plates were incubated for 16 hours and read using a LEADseeker (GE Healthcare, USA) Multimodality imaging instrument.
# as §1, §2, §3, §4
# [7] = tritiated ligand, used for Ki calculation
smiles,measurement,setting,value
CC(=O)N1Cc2cc(S(C)(=O)=O)ccc2[C@@H]1C(=O)Nc1ccc(C(O)(C(F)(F)F)C(F)(F)F)cc1 [Compound 5],Mouse ligand binding Response (%),[1]; -LOG10(Concentration) 5,-100.443% and -98.9%
same,Mouse ligand binding Response (%),[1]; -LOG10(Concentration) 5.5,-97.044% and -97.709% and -95.886%
same,Mouse ligand binding Response (%),[1]; -LOG10(Concentration) 6,-90.54% and -92.979% and -82.118%
same,Mouse ligand binding Response (%),[1]; -LOG10(Concentration) 6.5,-75.979% and -75.927%
same,Mouse ligand binding Response (%),[1]; -LOG10(Concentration) 7,-66.593% and -61.493% and -41.548%
same,Mouse ligand binding Response (%),[1]; -LOG10(Concentration) 7.5,-41.39% and -32.816% and -24.196%
same,Mouse ligand binding Response (%),[1]; -LOG10(Concentration) 8,-17.738% and -1.711% and -32.373%
same,Mouse ligand binding Response (%),[1]; -LOG10(Concentration) 8.5,-14.117% and 14.175%
same,Mouse ligand binding Response (%),[1]; -LOG10(Concentration) 9,-4.804% and 10.02% and -17.221%
same,Mouse ligand binding Response (%),[1]; -LOG10(Concentration) 9.5,-4.804% and 5.051% and -11.899%
same,RORa agonism Response (%),human RORα LBD; -LOG10(Concentration) 4.5,151.862%
same,RORa agonism Response (%),human RORα LBD; -LOG10(Concentration) 5,149.498%
same,RORa agonism Response (%),human RORα LBD; -LOG10(Concentration) 5.5,136.244%
same,RORa agonism Response (%),human RORα LBD; -LOG10(Concentration) 6,110.728%
same,RORa agonism Response (%),human RORα LBD; -LOG10(Concentration) 6.5,68.027%
same,RORa agonism Response (%),human RORα LBD; -LOG10(Concentration) 7,28.348%
same,RORa agonism Response (%),human RORα LBD; -LOG10(Concentration) 7.5,7.215%
same,RORa agonism Response (%),human RORα LBD; -LOG10(Concentration) 8,11.627%
same,RORa agonism Response (%),human RORα LBD; -LOG10(Concentration) 8.5,1.827%
same,RORa agonism Response (%),human RORα LBD; -LOG10(Concentration) 9,1.839%
same,RORa inverse agonism Response (%),human RORα LBD; -LOG10(Concentration) 4.5,135.32%
same,RORa inverse agonism Response (%),human RORα LBD; -LOG10(Concentration) 5,141.906%
same,RORa inverse agonism Response (%),human RORα LBD; -LOG10(Concentration) 5.5,137.911%
same,RORa inverse agonism Response (%),human RORα LBD; -LOG10(Concentration) 6,125.139%
same,RORa inverse agonism Response (%),human RORα LBD; -LOG10(Concentration) 6.5,92.31%
same,RORa inverse agonism Response (%),human RORα LBD; -LOG10(Concentration) 7,46.105%
same,RORa inverse agonism Response (%),human RORα LBD; -LOG10(Concentration) 7.5,12.144%
same,RORa inverse agonism Response (%),human RORα LBD; -LOG10(Concentration) 8,1.673%
same,RORa inverse agonism Response (%),human RORα LBD; -LOG10(Concentration) 8.5,-4.289%
same,RORa inverse agonism Response (%),human RORα LBD; -LOG10(Concentration) 9,-3.197%
same,Human Th17 Response (%),"[2]; -LOG10(Concentration) 6.5, single points per experiment",-83.16% and -87.655% and -78.367% and -82.722%
same,Human IL-17A in Th17 cells,[2]; IL-17A in supernatants after 4 days,7.8 ± 0.2 (45)
same,Thymocyte apoptosis,mouse thymocytes,6.6 ± 0.1 (4)
same,Mouse PPB (% unbound),[3],18.6 (1) %
same,ear thickness,IMQ model; IMQ model,significantly but partially reduced
same,effect in the IMQ model,IMQ model; repeated daily dosing of 15 mg/kg,a larger effect
same,effect on thymocyte numbers,thymocyte numbers,did not have a significant effect
C[C@H]1C[C@H](C(=O)O)CC[C@H]1C(=O)N1CC[C@@]2(S(=O)(=O)c3ccc(F)cc3)c3ccc(C(F)(C(F)(F)F)C(F)(F)F)cc3CC[C@@H]12 [BMS-986251],thymic lymphomas,thymic lymphomas [4],thymic lymphomas
same,thymic lymphomas,thymic lymphomas [5],thymic lymphomas
"CCS(=O)(=O)c1ccc(CC(=O)Nc2cc(-c3ccccc3COC)cs2)cc1 [2-(4-(ethylsulfonyl)phenyl)-N-(4-(2-(methoxymethyl)phenyl)thiophen-2-yl)acetamide, reference compound]",IC50,"[6]; the ligand that is used tritiated as radioligand, n = 6",0.0479 µM
same,Kd,[6]; [7],0.017 µM
same,IC50,"[1]; the ligand that is used tritiated as radioligand, n = 3",0.123 µM
same,Kd,[1]; [7],0.045 µM
